Results as given in patent US11780852B2, “Methods for treating Crohn's disease using 3-((1R,3s,5S)-3-((7-((5-methyl-1H-pyrazol-3-yl)amino)-1,6-naphthyridin-5-yl)amino)-8-azabicyclo[3.2.1]octan-8-yl)propanenitrile” (priority 2015, dated 2023).

Tests used:
[1] = Pharmacokinetics in plasma and the GI tract in rats; format: in vivo, Sprague Dawley rats; details: oral dosing in preclinical species
Description: Assay 6: Pharmacokinetics in Plasma and the GI Tract in Rats and Dogs A test compound was dosed to male Sprague Dawley rats (n=3) as described in Assay 5. […] At all time points, the plasma concentration was below the limit of quantitation of 0.001 μg/mL.

[2] = First in human study of safety, tolerability and pharmacokinetics in healthy subjects; format: in vivo; details: by comparison to other orally administered compounds
Description: Assay 9: First in Human Study to Evaluate the Safety, Tolerability and Pharmacokinetics in Healthy Subjects
The compound of Example 1 was evaluated in a double-blinded, randomized, placebo-controlled, single ascending dose (SAD) and multiple ascending dose (MAD) study of safety, tolerability, and pharmacokinetics in healthy subjects. Pharmacokinetic samples were collected up to 72 hours post the final dose in both the SAD study (after the first dose) and MAD study (after 14 days of once-daily dosing). The SAD study enrolled 5 cohorts and the MAD study enrolled 4 cohorts totaling 72 subjects, of which 71 completed the dosing period.
Plasma pharmacokinetic (PK) parameters were determined by non-compartmental analysis using WinNonLin Version 6.4.0 (Pharsight, St Louis, Mo.). The plasma PK parameter presented here is:
Cmax: maximum concentration in plasma

[3] = test system: oxazolone-induced colitis; experiment: Mouse model of oxazolone-induced colitis; format: in vivo, BALB/C mice; details: PO, 1, 3, and/or 10 mg/kg BID (doses up to 10 mg/kg BID)
Description: Assay 7: Mouse Model of Oxazalone-Induced Colitis
Oxazolone-induced colitis is an experimental model that has a histological resemblance to human ulcerative colitis (Heller et al. Immunology, 2002, 17, 629-638). Adult BALB/C mice from Harlan were used in the assay. On day 1, animals were lightly anesthetized with isoflurane and the hairs between the shoulder were carefully removed before oxazolone (4%, 150 μL, 4:1 acetone:olive oil formulation) or vehicle solution was slowly applied for skin sensitization. Seven days after skin sensitization, the mice were fasted overnight, anesthetized with isoflurane inhalation, and a 1 mL syringe equipped with a 3.5-F catheter, filled with oxazolone solution, was inserted carefully about 4 cm into the colon of the mouse. Following insertion, 50 μL of the oxazolone solution (1%, 1:1 ethanol:water formulation) was injected very slowly (over 30 sec using an injection pump) into the colon. The catheter was removed and the mice were held vertically (head down) for 2 min to ensure that the entire oxazolone solution remained inside the colon. Drug treatment (PO, BID or TID) or vehicle was initiated a day prior to the oxazolone intrarectal (IR) challenge. Two-day post oxazolone intrarectal challenge, the Disease Activity Index (DAI) was assessed by treatment-blinded experimenters for each mouse according to the criteria score: stool consistency score (0, normal; 2, loose; 4, diarrhea), gross bleeding score (0, absence; 2, blood tinged; 4, presence), and weight loss score (0, none; 1, 1%-5%; 2, 5%-10^%; 3, 10%-20%; 4, more than 20%); DAI=average of (stool consistency score+gross bleeding score+weight loss score).
Selected compounds of the invention were tested in the assay. Efficacy in the model is evidenced by a decrease in DAI score as compared with the score from vehicle treated animals.

[4] = test system: splenic NK, B and T cells; experiment: Immunosuppression effects in mouse splenic natural killer (NK) cells; format: in vivo, Balb/C mice
Description: Assay 8: Immunosuppression Effects in Mouse Splenic Natural Killer (NK) Cells Depletion of mouse splenic cells is an experimental model of immunosuppression (Kudlacz et al., Am. J. of Transplantation, 2004, 4, 51-57). […] Adult male Balb/C mice (12-14 weeks of age) from Harlan were used for the study. […] Spleens were harvested 1 or 2 h post last dose and crushed immediately for cell subtype staining. Prior to fixation, fluorophore-labelled antibodies for CD19 (FITC; B cells), CD3e (PE; pan T cells) and DX5 (APC; NK cells) were incubated with splenocyte samples from each animal to allow for simultaneous, multiple subtype % analysis on the flow cytometer. The number of total spleen cells for each animal was measured by Scepter™ 2.0 Handheld Automated Cell Counter. The absolute number of lymphocyte subtype population (e.g., splenic B, T and NK cells) was calculated from the percentage of each subtype times total spleen cells for each animal. A one way ANOVA, with Dunnett's post hoc test, was used to compare the splenic lymphocytes number of the vehicle and test compound groups. The a level was set at p<0.05. Data were presented as the mean±SEM for each group.

Cc1cc(Nc2cc3ncccc3c(N[C@@H]3C[C@H]4CC[C@@H](C3)N4CCC#N)n2)n[nH]1 [Example 1, 3-((1R,3s,5S)-3-((7-((5-methyl-1H-pyrazol-3-yl)amino)-1,6-naphthyridin-5-yl)amino)-8-azabicyclo[3.2.1]octan-8-yl)propanenitrile]
exposure throughout the gastrointestinal tract versus exposure in plasma [1]: significantly higher exposure
oral bioavailability [2]: very low
DAI score as compared with vehicle treated animals [3]: statistically significant decrease
effect of immunosuppression ([4]; mice, same dose required for efficacy in the oxazolone model): minimal effect
B and T cell populations (spleen) ([4]; mouse, PO BID three days): No treatment effect
splenic NK cell counts ([4]; mouse, PO BID three days, tofacitinib 30 mg/kg, Example 1 up to 100 mg/kg): unaffected
